Experimental data taken from PMC8892858 (ACS Omega, 2022).
Where “and” joins values, the source holds several entries; their conditions need not be identical. Equal entries are not always repeated. Entries after “also recorded” stand apart in the source; their conditions may differ. Structures can show the parent of a compound that is named as a salt. Where two headings read alike, the source gives them in different places.

Legend:
[1] = test system: rRVFVΔNSs::Katushka; test: microbe, parasite or virus in culture; type: cell-based, Rift Valley fever virus; conditions: for IC50: read-out: IC50, dose-response curves of inhibition of RVFV infection (Figure 5A)
[2] = test system: rRVFVΔNSs::Katushka; type: cell-based, Rift Valley fever virus
[3] = in vitro; conditions: human
[4] = test system: A549 cells
[5] = test system: rRVFVΔNSs::Katushka; type: cell-based, Rift Valley fever virus; remark: listed apart in the source
[6] = test system: A549 cells; type: cell-based, Human
[7] = Rift Valley fever virus, A549, 16 h, read-out: EC50 value
[8] = Rift Valley fever virus, A549, 16 h

Molecule | Selectivity index [1] | EC50 [1, 7] [µM] | CC50 [3] [µM] | also measured
CN1CCN(CCCCOc2ccc(-c3ccccc3)cc2)CC1 [Compound 8c, 1-(4-(Biphenyl-4-yloxy)butyl)-4-methylpiperazine] | 2.2 | 61.7 ± 17.6 | 136.2 ± 1.2 | inhibition of RVFV RNA expression (qRT-PCR) [2]: unable to inhibit the viral RNA expressions
c1cc(C2CCCCC2)ccc1OCCCCN1CCNCC1 [Compound 13l, 1-(4-(4-Cyclohexylphenoxy)butyl)piperazine·2HCl] | 5.6 | 8.8 ± 0.5 | 49.9 ± 10.1 | –
c1ccc(-c2ccc(OCCCCCN3CCNCC3)cc2)cc1 [Compound 9b, 1-(5-(Biphenyl-4-yloxy)pentyl)piperazine] | – | 11.7 ± 1.8 | 44.2 ± 16.6 | –
CN(C)c1cccc(-c2ccc(OCCCCN3CCNCC3)cc2)c1 [Compound 13h, N,N-Dimethyl-4′-(4-(piperazin-1-yl)butoxy)biphenyl-3-amine·3HCl] | 5.3 | 15.5 ± 4.7 | 82.5 ± 15.2 | CC50 value [4]: high toxicity
NCCCNCCOc1ccc(-c2ccccc2)cc1 [Compound 1, N1-(2-(Biphenyl-4-yloxy)ethyl)propane-1,3-diamine·2HCl] | 7.1 | 12 ± 1.3 | 86 ± 9 | –
c1ccc(Cc2cccc(OCCCCN3CCNCC3)c2)cc1 [Compound 13d, 1-(4-(3-Benzylphenoxy)butyl)piperazine·2HCl] | 5.8 | 22.9 ± 5.2 | 134.2 ± 0.9 | –
c1cc(C23CC4CC(CC(C4)C2)C3)ccc1OCCCCN1CCNCC1 [Compound 13m, 1-(4-(4-Adamantylphenoxy)butyl)piperazine·2HCl] | 2.4 | 5.4 ± 1.2 | 13.1 | CC50 value [4]: Extreme toxicity
c1ccc(-c2ccccc2OCCCCN2CCNCC2)cc1 [Compound 13b, 1-(4-(Biphenyl-2-yloxy)butyl)piperazine·2HCl] | > 4.7 | 63.5 ± 11.1 | > 300 | –
c1ccc(-c2ccc(OCCCCN3CCN(c4ccccc4)CC3)cc2)cc1 [Compound 11, 1-(4-(Biphenyl-4-yloxy)butyl)-4-phenylpiperazine] | – | – | > 300 | EC50 value [1]: the antiviral activity was completely eliminated; also recorded: ND (no inhibition); inhibition of RVFV RNA expression (qRT-PCR) [2]: did not show any inhibition
CC(C)c1ccc(-c2ccc(OCCCCN3CCNCC3)cc2)cc1 [Compound 13i, 1-(4-(4′-Isopropylbiphenyl-4-yloxy)butyl)piperazine·2HCl] | 5.1 | 4.6 ± 0.3 | 23.5 ± 0.1 | –
c1ccc(-c2ccc(OCCCN3CCNCC3)cc2)cc1 [Compound 5g, 1-(3-(Biphenyl-4-yloxy)propyl)piperazine] | < 2 | > 100 | 203 ± 53.5 | –
c1ccc(OCCCCN2CCNCC2)cc1 [Compound 13f, 1-(4-Phenoxybutyl)piperazine·2HCl] | – | – | > 300 | EC50 value [1]: completely removed the antiviral activity; also recorded: ND (no inhibition)
c1ccc(-c2cccc(OCCCCN3CCNCC3)c2)cc1 [Compound 13a, 1-(4-(Biphenyl-3-yloxy)butyl)piperazine·2HCl] | 10 and 10.4 | 13.8 ± 5.3 | 145 ± 5.5 | IC50 [1, 8]: 13.8 µM; antiviral potency by time of addition [5]: active at early stages of the viral replication cycle, most likely during or just after virus entry; also recorded: progressively lost its potency when added at late stages of the infection cycle; DiBAC4(3) fluorescence intensity (membrane potential) [6]: increased DiBAC4(3) fluorescence intensity (depolarization)
c1ccc(-c2ccc(OCCCCN3CCNCC3)cc2)cc1 [Compound 9a, 1-(4-(Biphenyl-4-yloxy)butyl)piperazine] | 5.8 | 12.8 ± 0.2 | 74.8 ± 1.2 | –
NCCOc1ccc(-c2ccccc2)cc1 [Compound 5b, 2-(Biphenyl-4-yloxy)ethanamine·HCl] | 8.1 | 37.3 ± 0.5 | > 300 | –
c1ccc(-c2ccc(OCCN3CCNCC3)cc2)cc1 [Compound 5f, 1-(2-(Biphenyl-4-yloxy)ethyl)piperazine] | 4.2 | 38.7 ± 11.6 | 165 ± 22.9 | –
c1ccc(-c2ccc(OCCN3CCCCC3)cc2)cc1 [Compound 4d, 1-(2-(Biphenyl-4-yloxy)ethyl)piperidine] | – | > 100 | > 300 | –
c1ccc(Cc2ccc(OCCCCN3CCNCC3)cc2)cc1 [Compound 13c, 1-(4-(4-Benzylphenoxy)butyl)piperazine·2HCl] | 9.1 | 15.4 ± 4.7 | 140.3 ± 0.8 | –
NCCCCCCOc1ccc(-c2ccccc2)cc1 [Compound 5a, 6-(Biphenyl-4-yloxy)hexan-1-amine·HCl] | 3.6 | 12.1 ± 2.1 | 44.6 ± 0.3 | –
CC(=O)c1cccc(-c2ccc(OCCCCN3CCNCC3)cc2)c1 [Compound 13g, 1-(4′-(4-(Piperazin-1-yl)butoxy)biphenyl-3-yl)ethanone·2HCl] | – | 41.9 ± 27.3 | > 300 | –
1-(4-(Benzhydryloxy)butyl)-4-phenylpiperazine [Compound 16] | – | – | – | EC50 value [1]: reduced the antiviral activity significantly; EC50 ([1]; read-out: EC50 value): > 100 µM; CC50 [4]: > 300 µM
c1ccc(-c2ccc(OCCN3CCOCC3)cc2)cc1 [Compound 4e, 4-(2-(Biphenyl-4-yloxy)ethyl)morpholine] | – | > 100 | > 300 | –
NCCCOc1ccc(-c2ccccc2)cc1 [Compound 5c, 3-(Biphenyl-4-yloxy)propan-1-amine] | 3.8 | 37.8 ± 6.7 | 147 ± 4 | –
C=C[C@H]1C[N@@]2CC[C@H]1C[C@@H]2[C@@H](O)c1ccnc2ccc(OC)cc12 [quinidine, reference compound] | – | – | – | EC50 ([1]; Rift Valley fever virus, A549, 16 h, read-out: EC50 value, inhibition of RVFV infection (dose-response before membrane potential assay)): 146 µM; IC50 [1, 8]: 164 µM; DiBAC4(3) fluorescence intensity (membrane potential) [6]: increased DiBAC4(3) fluorescence intensity (depolarization)
c1ccc(Cc2ccccc2OCCCCN2CCNCC2)cc1 [Compound 13e, 1-(4-(2-Benzylphenoxy)butyl)piperazine·2HCl] | 4.7 | 31.2 ± 15.8 | 148.4 ± 1.3 | –
CC(C)c1cccc(-c2ccc(OCCCCN3CCNCC3)cc2)c1 [Compound 13j, 1-(4-(3′-Isopropylbiphenyl-4-yloxy)butyl)piperazine·2HCl] | 5.4 | 4.7 ± 0.7 | 25.5 ± 8.9 | –
